These results are taken from US20230365537A1, “POLO LIKE KINASE 4 INHIBITORS” (ORIC Pharmaceuticals, Inc., priority 2021, published 2023).

Experiment [1] addresses human recombinant Aurora A (Homo sapiens (Human), UniProt O14965). Briefly: Aurora A Kinase Biochemical Assay (ADP-Glo). Conditions: ratio of Aurora A IC50 to PLK4 IC50 (selectivity). For orientation: ADP-Glo first removes unused ATP, then detects ADP through luciferase.
Experiment [2] concerns the target human recombinant Aurora B (Homo sapiens (Human), UniProt Q96GD4). Put plainly: Aurora B Kinase Biochemical Assay (ADP-Glo). Conditions: ratio of Aurora B IC50 to PLK4 IC50 (selectivity). The method, boiled down: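 IC50 derived by four-parameter nonlinear fit of ADP-Glo luminescence (ADP produced). Compound was preincubated 15 min at RT with 20 nM recombinant human Aurora B, in 50 mM HEPES pH 7.5, 10 mM MgCl2, 1 mM EGTA, 1 mM DTT, 0.01% Brij-35/BSA.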

A further experiment relates to CHP-134 cells. Briefly: CHP134 CellTiter-Glo (CTG) Assay. Type of experiment: cell-based. As to conditions: Homo sapiens, CHP-134, 120 h, 5 days, viable cells by CellTiter-Glo. The method, boiled down: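 Nine-point 1:3 dilution series, diluted into growth media, added in quadruplicate to CHP-134 cells plated 16 h earlier at 200 cells/well.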
The target of another experiment is human recombinant PLK4 (Homo sapiens (Human), UniProt O00444). Put plainly: PLK4 Biochemical Assay (ADP-Glo). As to conditions: 0.5 nM PLK4, 8.0 µM ATP, 4.7 µM MBP, 6 hours at RT. In a few lines: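 Luminescent ADP-Glo detection quantified ADP production, with ATP depletion for 40 min and detection for 30 min at room temperature. Compound and PLK4 (1.0 nM stock addition) were preincubated 15 min in HEPES pH 7.5 buffer containing MgCl2, EGTA, DTT, Brij-35 and BSA. IC50 values were obtained by four-parameter nonlinear regression.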
Sequence of human recombinant PLK4 (O00444 whole entry): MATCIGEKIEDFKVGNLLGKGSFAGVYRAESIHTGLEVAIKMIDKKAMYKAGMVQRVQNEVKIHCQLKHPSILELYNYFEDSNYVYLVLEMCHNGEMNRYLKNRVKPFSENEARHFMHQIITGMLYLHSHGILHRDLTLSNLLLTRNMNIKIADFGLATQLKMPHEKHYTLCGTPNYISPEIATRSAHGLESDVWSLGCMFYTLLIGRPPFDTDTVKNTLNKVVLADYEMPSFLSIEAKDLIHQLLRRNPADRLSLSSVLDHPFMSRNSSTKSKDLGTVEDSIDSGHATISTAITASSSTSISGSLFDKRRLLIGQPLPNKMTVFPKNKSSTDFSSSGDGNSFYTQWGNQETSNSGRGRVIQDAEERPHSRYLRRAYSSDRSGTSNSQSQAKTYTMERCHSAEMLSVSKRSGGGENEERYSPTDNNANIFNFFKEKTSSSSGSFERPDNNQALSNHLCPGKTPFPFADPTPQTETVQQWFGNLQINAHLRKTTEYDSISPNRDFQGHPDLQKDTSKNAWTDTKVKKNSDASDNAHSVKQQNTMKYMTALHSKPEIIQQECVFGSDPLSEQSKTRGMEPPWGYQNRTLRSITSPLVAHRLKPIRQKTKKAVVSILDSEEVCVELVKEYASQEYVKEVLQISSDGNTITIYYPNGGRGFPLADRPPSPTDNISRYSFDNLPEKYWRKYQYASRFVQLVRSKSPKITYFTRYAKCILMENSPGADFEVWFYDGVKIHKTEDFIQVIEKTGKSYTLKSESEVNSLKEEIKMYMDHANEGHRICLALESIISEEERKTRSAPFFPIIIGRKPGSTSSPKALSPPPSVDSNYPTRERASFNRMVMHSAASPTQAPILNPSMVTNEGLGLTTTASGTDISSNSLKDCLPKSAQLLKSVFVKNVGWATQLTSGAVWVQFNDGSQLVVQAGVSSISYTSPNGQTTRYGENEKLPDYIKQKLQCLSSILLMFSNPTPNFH

Sequence of human recombinant Aurora A (O14965 whole entry): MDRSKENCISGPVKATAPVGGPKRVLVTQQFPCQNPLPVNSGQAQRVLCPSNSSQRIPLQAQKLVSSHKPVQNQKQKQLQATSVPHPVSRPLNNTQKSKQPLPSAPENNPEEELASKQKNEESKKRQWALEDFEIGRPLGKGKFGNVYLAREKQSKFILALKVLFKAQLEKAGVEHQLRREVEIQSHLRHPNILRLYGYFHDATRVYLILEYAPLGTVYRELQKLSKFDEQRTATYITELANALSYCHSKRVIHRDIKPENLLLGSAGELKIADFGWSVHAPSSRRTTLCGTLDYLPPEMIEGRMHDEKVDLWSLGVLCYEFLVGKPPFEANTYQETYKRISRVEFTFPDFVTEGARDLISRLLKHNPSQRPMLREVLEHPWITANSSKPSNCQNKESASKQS
Sequence of human recombinant Aurora B (Q96GD4 whole entry): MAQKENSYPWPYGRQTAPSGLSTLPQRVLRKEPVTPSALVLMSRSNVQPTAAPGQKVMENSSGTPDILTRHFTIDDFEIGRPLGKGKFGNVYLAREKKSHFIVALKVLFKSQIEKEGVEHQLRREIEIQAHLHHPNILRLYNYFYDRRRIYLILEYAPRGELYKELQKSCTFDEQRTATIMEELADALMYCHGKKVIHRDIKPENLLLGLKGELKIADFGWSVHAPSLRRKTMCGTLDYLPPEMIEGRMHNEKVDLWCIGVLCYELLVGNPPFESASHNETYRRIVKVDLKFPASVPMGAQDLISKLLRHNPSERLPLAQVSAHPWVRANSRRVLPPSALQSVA

With `COc1ccc2c(c1)[C@]1(C[C@H]1c1ccc3c(Nc4cnc(S(C)(=O)=O)cc4OC)n[nH]c3c1)C(=O)N2` [Example 241, (1R,2S)-2-(3-{[6-(methanesulfonyl)-4-methoxypyridin-3-yl]amino}-1H-indazol-6-yl)-5′-methoxyspiro[cyclopropane-1,3′-indol]-2′(1′H)-one], in experiment [1], the “[Aurora A IC50 (nM)]/[PLK4 IC50 (nM)]” value was determined as 2066.9875. For the same molecule, the “[Aurora B IC50 (nM)]/[PLK4 IC50 (nM)]” value in experiment [2] came out at 253.4697. The figures for the IC50 in the experiment on CHP-134 cells and at human recombinant PLK4 were 1100 nM and 2.49 nM, respectively.
With `COc1ccc2c(c1)[C@]1(C[C@H]1c1ccc3c(Nc4ncc(S(C)(=O)=O)nc4OC)n[nH]c3c1)C(=O)N2` [Example 242, (1R,2S)-2-(3-{[5-(methanesulfonyl)-3-methoxypyrazin-2-yl]amino}-1H-indazol-6-yl)-5′-methoxyspiro[cyclopropane-1,3′-indol]-2′(1′H)-one], the “[Aurora A IC50 (nM)]/[PLK4 IC50 (nM)]” value in experiment [1] was determined as 307.7159. Further, in experiment [2], the “[Aurora B IC50 (nM)]/[PLK4 IC50 (nM)]” value came to 129.0381. Also, the IC50 with CHP-134 cells worked out at 5510 nM; at human recombinant PLK4, 6.52 nM.
The like results for `COc1ccc2c(c1)[C@]1(C[C@H]1c1ccc3c(Nc4ccc(C(=O)N(C5CC5)C5CC5)nc4OC)n[nH]c3c1)C(=O)N2` [Example 243, N,N-dicyclopropyl-6-methoxy-5-({6-[(1R,2S)-5′-methoxy-2′-oxo-1′,2′-dihydrospiro[cyclopropane-1,3′-indol]-2-yl]-1H-indazol-3-yl}amino)pyridine-2-carboxamide] were, in that order, 479.1122, 164.5778, 188 nM and 1.15 nM.
In the case of `COc1ccc2c(c1)[C@]1(C[C@H]1c1ccc3c(Nc4ccc(C(=O)NCC(F)F)nc4OC)n[nH]c3c1)C(=O)N2` [Example 244, N-(2,2-difluoroethyl)-6-methoxy-5-({6-[(1R,2S)-5′-methoxy-2′-oxo-1′,2′-dihydrospiro[cyclopropane-1,3′-indol]-2-yl]-1H-indazol-3-yl}amino)pyridine-2-carboxamide], the “[Aurora A IC50 (nM)]/[PLK4 IC50 (nM)]” value in experiment [1] was 1578.3505. In addition, the “[Aurora B IC50 (nM)]/[PLK4 IC50 (nM)]” value in experiment [2] was 312.3. The IC50 in the experiment on CHP-134 cells is 545 nM; at human recombinant PLK4 it was 2.91 nM.
The like results for `COc1ccc2c(c1)[C@]1(C[C@H]1c1ccc3c(Nc4ccc(C(=O)N5[C@H](C)CCC[C@@H]5C)nc4OC)n[nH]c3c1)C(=O)N2` [Example 245, (1R,2S)-2-[3-({6-[(2R,6S)-2,6-dimethylpiperidine-1-carbonyl]-2-methoxypyridin-3-yl}amino)-1H-indazol-6-yl]-5′-methoxyspiro[cyclopropane-1,3′-indol]-2′(1′H)-one] were, in that order, 1730.3523, 319.6476, 131 nM and 0.738 nM.
In the case of `COc1ccc2c(c1)[C@]1(C[C@H]1c1ccc3c(Nc4ccc(C(=O)N5CC6CCC(C5)O6)nc4OC)n[nH]c3c1)C(=O)N2` [Example 246, (1R,2S)-5′-methoxy-2-(3-{[2-methoxy-6-(8-oxa-3-azabicyclo[3.2.1]octane-3-carbonyl)pyridin-3-yl]amino}-1H-indazol-6-yl)spiro[cyclopropane-1,3′-indol]-2′(1′H)-one], the “[Aurora A IC50 (nM)]/[PLK4 IC50 (nM)]” value in experiment [1] is 426.8090. For the same molecule, the “[Aurora B IC50 (nM)]/[PLK4 IC50 (nM)]” value in experiment [2] is reported as 176.8683. In addition, the IC50 came to 68.4 nM in the experiment with CHP-134 cells and 0.843 nM on human recombinant PLK4.
As to `COc1ccc2c(c1)[C@]1(C[C@H]1c1ccc3c(Nc4ncc(S(C)(=O)=O)cc4Cl)n[nH]c3c1)C(=O)N2` [Example 247, (1R,2S)-2-(3-{[3-chloro-5-(methanesulfonyl)pyridin-2-yl]amino}-1H-indazol-6-yl)-5′-methoxyspiro[cyclopropane-1,3′-indol]-2′(1′H)-one], in experiment [1], the “[Aurora A IC50 (nM)]/[PLK4 IC50 (nM)]” value is listed as 1434.9223. Besides, the “[Aurora B IC50 (nM)]/[PLK4 IC50 (nM)]” value in experiment [2] came out at 423.6743. For the same molecule, the IC50 with CHP-134 cells was 1010 nM; on human recombinant PLK4, 3.73 nM.
As to `COc1ccc2c(c1)[C@]1(C[C@H]1c1ccc3c(Nc4ncc(S(=O)(=O)C(C)C)cc4OC)n[nH]c3c1)C(=O)N2` [Example 248, (1R,2S)-5′-Methoxy-2-(3-{[3-methoxy-5-(propane-2-sulfonyl)pyridin-2-yl]amino}-1H-indazol-6-yl)spiro[cyclopropane-1,3′-indol]-2′(1′H)-one], the “[Aurora A IC50 (nM)]/[PLK4 IC50 (nM)]” value in experiment [1] is 683.4543. In experiment [2], the “[Aurora B IC50 (nM)]/[PLK4 IC50 (nM)]” value was 206.5375. For the same molecule, the IC50 in the experiment on CHP-134 cells was 120 nM; on human recombinant PLK4 it was 1.24 nM.
In the same order, the values of `COc1ccc2c(c1)[C@]1(C[C@H]1c1ccc3c(Nc4ccc(C(=O)N(C)C)nc4Cl)n[nH]c3c1)C(=O)N2` [Example 251, 6-chloro-5-({6-[(1R,2S)-5′-methoxy-2′-oxo-1′,2′-dihydrospiro[cyclopropane-1,3′-indol]-2-yl]-1H-indazol-3-yl}amino)-N,N-dimethylpyridine-2-carboxamide] are 1734.2342, 268.6936, 287 nM and 1.33 nM.
With `COc1ccc2c(c1)[C@]1(C[C@H]1c1ccc3c(Nc4ncc(C5CS(=O)(=O)C5)nc4OC)n[nH]c3c1)C(=O)N2` [Example 254, 3-[6-methoxy-5-({6-[(1R,2S)-5′-methoxy-2′-oxo-1′,2′-dihydrospiro[cyclopropane-1,3′-indol]-2-yl]-1H-indazol-3-yl}amino)pyrazin-2-yl]-1λ6-thietane-1,1-dione], in experiment [1], the “[Aurora A IC50 (nM)]/[PLK4 IC50 (nM)]” value is recorded as 297.6878. Further, the “[Aurora B IC50 (nM)]/[PLK4 IC50 (nM)]” value in experiment [2] is 96.18. Also, the IC50 in the experiment with CHP-134 cells came to 2160 nM; at human recombinant PLK4 it was 5.19 nM.
On to `COc1ccc2c(c1)[C@]1(C[C@H]1c1ccc3c(Nc4ncc(S(=O)(=O)N5CCOCC5)cc4OC)n[nH]c3c1)C(=O)N2` [Example 255], for which, in experiment [1], the “[Aurora A IC50 (nM)]/[PLK4 IC50 (nM)]” value stood at 840.1202. The “[Aurora B IC50 (nM)]/[PLK4 IC50 (nM)]” value in experiment [2] is listed as 566.4948. The IC50 amounted to 380 nM with CHP-134 cells and 1.16 nM on human recombinant PLK4.
`COc1ccc2c(c1)[C@]1(C[C@H]1c1ccc3c(Nc4ncc(S(=O)(=O)N5CC6CCC(C5)O6)cc4OC)n[nH]c3c1)C(=O)N2` [Example 256, (1R,2S)-5′-methoxy-2-(3-{[3-methoxy-5-(8-oxa-3-azabicyclo[3.2.1]octane-3-sulfonyl)pyridin-2-yl]amino}-1H-indazol-6-yl)spiro[cyclopropane-1,3′-indol]-2′(1′H)-one]: the “[Aurora A IC50 (nM)]/[PLK4 IC50 (nM)]” value in experiment [1] amounted to 1143.4287. In addition, the “[Aurora B IC50 (nM)]/[PLK4 IC50 (nM)]” value in experiment [2] stood at 1153. Further, the IC50 in the experiment on CHP-134 cells is 310 nM; at human recombinant PLK4 it was 0.65 nM.
Turning to `CCP(=O)(CC)c1ccc(Nc2n[nH]c3cc([C@@H]4C[C@@]45C(=O)Nc4ccc(OC)cc45)ccc23)c(OC)n1` [Example 257, (1R,2S)-2-(3-{[6-(diethylphosphoryl)-2-methoxypyridin-3-yl]amino}-1H-indazol-6-yl)-5′-methoxyspiro[cyclopropane-1,3′-indol]-2′(1′H)-one], the “[Aurora A IC50 (nM)]/[PLK4 IC50 (nM)]” value in experiment [1] was determined as 1259.8465. For the same molecule, in experiment [2], the “[Aurora B IC50 (nM)]/[PLK4 IC50 (nM)]” value is recorded as 324.5524. The IC50 with CHP-134 cells was found to be 1590 nM; at human recombinant PLK4 it was 3.91 nM.
In the case of `COc1ccc2c(c1)[C@]1(C[C@H]1c1ccc3c(Nc4ncc(S(=O)(=O)C5CC5)cc4OC)n[nH]c3c1)C(=O)N2` [Example 258, (1R,2S)-2-(3-{[5-(Cyclopropanesulfonyl)-3-methoxypyridin-2-yl]amino}-1H-indazol-6-yl)-5′-methoxyspiro[cyclopropane-1,3′-indol]-2′(1′H)-one], the “[Aurora A IC50 (nM)]/[PLK4 IC50 (nM)]” value in experiment [1] is 1100.4954. In experiment [2], the “[Aurora B IC50 (nM)]/[PLK4 IC50 (nM)]” value was found to be 464.7558. Further, the IC50 stood at 168 nM in the experiment on CHP-134 cells and 1.41 nM at human recombinant PLK4.
On to `COc1ccc2c(c1)[C@]1(C[C@H]1c1ccc3c(Nc4ncc(S(=O)(=O)C5CCOCC5)cc4OC)n[nH]c3c1)C(=O)N2` [Example 259, (1R,2S)-5′-methoxy-2-(3-{[3-methoxy-5-(oxane-4-sulfonyl)pyridin-2-yl]amino}-1H-indazol-6-yl)spiro[cyclopropane-1,3′-indol]-2′(1′H)-one], for which, in experiment [1], the “[Aurora A IC50 (nM)]/[PLK4 IC50 (nM)]” value was 1294.8084. Further, in experiment [2], the “[Aurora B IC50 (nM)]/[PLK4 IC50 (nM)]” value stood at 835.2904. Moreover, the half-maximal inhibitory concentration (IC50) with CHP-134 cells was 900 nM; at human recombinant PLK4, 0.971 nM.
The like results for `CCS(=O)(=O)c1cc(OC)c(Nc2n[nH]c3cc([C@@H]4C[C@@]45C(=O)Nc4ccc(OC)cc45)ccc23)cn1` [Example 262, (1R,2S)-2-(3-{[6-(ethanesulfonyl)-4-methoxypyridin-3-yl]amino}-1H-indazol-6-yl)-5′-methoxyspiro[cyclopropane-1,3′-indol]-2′(1′H)-one] were, in that order, 3488.1209, 526.7, 507 nM and 1.39 nM.

One may read the IC50 as the concentration needed to halve the response being measured.
